This note sets out measurements from patent US20250026748A1, “N-(5-SUBSTITUTED-[(1,3,4-THIADIAZOLYL) OR (THIAZOLYL)])(SUBSTITUTED)CARBOXAMIDE COMPOUNDS AND USE THEREOF FOR INHIBITING HUMAN POLYMERASE THETA” (Repare Therapeutics Inc., priority 2021, published 2025).

SMILES strings stand for the structures.

Chain of PolQ ATPase enzyme (1-894) (O75417 1-894): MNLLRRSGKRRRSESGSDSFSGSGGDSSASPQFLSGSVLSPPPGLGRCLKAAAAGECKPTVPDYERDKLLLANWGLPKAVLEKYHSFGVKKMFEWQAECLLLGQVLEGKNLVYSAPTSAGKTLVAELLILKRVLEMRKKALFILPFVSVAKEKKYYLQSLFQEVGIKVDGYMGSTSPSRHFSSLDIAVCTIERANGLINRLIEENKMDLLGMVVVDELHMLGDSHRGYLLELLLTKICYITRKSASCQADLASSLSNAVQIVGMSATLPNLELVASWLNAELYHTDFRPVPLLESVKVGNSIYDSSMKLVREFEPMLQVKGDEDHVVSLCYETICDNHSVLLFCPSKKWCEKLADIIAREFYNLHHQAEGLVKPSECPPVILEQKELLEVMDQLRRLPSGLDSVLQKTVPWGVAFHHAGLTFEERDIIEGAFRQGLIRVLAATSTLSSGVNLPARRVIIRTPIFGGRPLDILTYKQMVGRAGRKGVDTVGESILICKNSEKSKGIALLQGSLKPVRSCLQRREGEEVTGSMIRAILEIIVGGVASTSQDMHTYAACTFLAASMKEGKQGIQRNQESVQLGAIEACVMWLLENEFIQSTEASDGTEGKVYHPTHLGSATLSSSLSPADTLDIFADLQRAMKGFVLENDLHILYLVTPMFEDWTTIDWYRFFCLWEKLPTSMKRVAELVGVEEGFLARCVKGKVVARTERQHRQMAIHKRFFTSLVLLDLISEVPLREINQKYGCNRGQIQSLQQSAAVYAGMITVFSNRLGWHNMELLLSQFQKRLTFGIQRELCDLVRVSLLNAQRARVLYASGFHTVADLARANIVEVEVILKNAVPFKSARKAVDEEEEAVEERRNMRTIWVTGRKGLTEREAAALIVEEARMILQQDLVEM

This experiment deals with PolQ ATPase enzyme (1-894) (Homo sapiens (Human), UniProt O75417). The experiment can be described thus: Polθ ATPase enzymatic assay (0.5 nM enzyme concentration), ADP-Glo. In kind it is biochemical. As to conditions: average IC50; 0.5 nM PolQ ATPase enzyme (1-894). Summed up:
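Enzyme (0.5 nM) pre-incubated 15 min at rt with 10-point inhibitor series in 50 mM Tris pH 7.5, 10% glycerol, 5 mM DTT, 10 mM MgCl2, 0.1 mg/ml BSA; reaction started with 20 nM fork DNA and 100 μM ATP, run 180 min at rt. ADP-Glo luminescence; IC50 from 4-parameter variable-slope fit.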
In the case of `COc1cnc(C(F)F)cc1-c1cc(N2CCCCC2=O)ccc1C(=O)Nc1nnc(C#CC2CC2)s1` [Compound 212], the IC50 is below 0.25 nM.
`COc1ccc(C(F)(F)F)cc1-c1cn(C)c(=O)cc1C(=O)Nc1nnc(C#CC2COC2)s1` [Compound 343] came in with a 50% inhibitory concentration (IC50) of 8.4 nM.
Consider `COc1ccn(-c2cc(-c3cc(C(F)F)ncc3OC)c(C(=O)Nc3nnc(C#CC4CC4)s3)cn2)c(=O)c1` [Compound 434], for which the IC50 is below 0.25 nM.
The figure for `COc1cnc(C(F)F)cc1-c1cc(CN2CCN(C)C2=O)ccc1C(=O)Nc1nnc(C#CC2CC2)s1` [Compound 231] is 1.6 nM; for `COc1cnc(C(F)F)cc1-c1cc(Cc2nnc(C)o2)ccc1C(=O)Nc1nnc(C#CC2CC2)s1` [Compound 244] it is below 0.25 nM.
The figure for `COc1cnc(C(F)F)cc1-c1cc(C2CC2)ncc1C(=O)Nc1nnc(C#CC2CC2)s1` [Compound 247] is 2.9 nM; for `COc1cnc(C(F)F)cc1-c1cc(C#Cc2cn[nH]c2)ncc1C(=O)Nc1nnc(C#CC2CC2)s1` [Compound 196] it is below 0.25 nM; for `COc1cnc(Cl)cc1-c1cc(-c2cccnn2)ccc1C(=O)Nc1nnc(C#CC2CC2)s1` [Compound 45] it is 2.2 nM.
The figure for `COc1cnc(C(F)F)cc1-c1cn2ncnc2cc1C(=O)Nc1nnc(C#CC2CC23CC3)s1` (stereo not shown) [Compound 48] is 2.5 nM.
For the molecule `COc1cnc(C)cc1-c1cnccc1C(=O)Nc1nnc(C#CC2CC2)s1` [Compound 70], half-maximal inhibition (IC50) was put at 2.5 nM.
`COc1cnc(C(F)F)cc1-c1cc(-n2ccnc(C)c2=O)ncc1C(=O)Nc1nnc(C#CC2CC2)s1` [Compound 458] yielded a half-maximal inhibitory concentration (IC50) of 0.1 nM.
Regarding `COc1cnc(C(F)F)cc1-c1cc(C2=CCOCC2)ncc1C(=O)Nc1nnc(C#CC2CC2)s1` [Compound 284], half-maximal inhibition (IC50) required 5.6 nM.
`COc1cnc(C(F)F)cc1-c1cc(N2CCn3nccc3C2=O)ncc1C(=O)Nc1nnc(C#CC2CC2)s1` [Compound 133] gave an IC50 below 0.25 nM.
Turning to `COc1cnc(C(F)F)cc1-c1cc(-n2cc(C)ccc2=O)ncc1C(=O)Nc1nnc(C#CC2CC2)s1` [Compound 440], the 50% inhibitory concentration (IC50) was below 0.25 nM.
For the molecule `CNC(=O)Cc1ccc(C(=O)Nc2ncc(C#CC3CC3)s2)c(-c2cc(C(F)F)ncc2OC)c1` [Compound 204], the IC50 was 0.71 nM.
As for `COc1ccc(C(F)(F)F)cc1-c1cnccc1C(=O)Nc1nnc(C#CC2CC2(C)C)s1` (stereo not shown) [Compound 306], the figure is 0.56 nM; as for `COc1cnc(C(F)F)cc1-c1cc(-c2ccc(C)cn2)ncc1C(=O)Nc1nnc(C#CC2CC2)s1` [Compound 436], below 0.25 nM.
`COc1cnc(C(F)F)cc1-c1cc(CN2CCOCC2=O)ccc1C(=O)Nc1nnc(C#CC2CC2)s1` [Compound 227] showed an IC50 of 6.9 nM.
`COc1cnc(C(F)F)cc1-c1cc(N2CCCCC2=O)ncc1C(=O)Nc1nnc(C#CC2CC2)s1` [Compound 192]: the IC50 was determined as 0.33 nM.
`COc1cnc(C(F)F)cc1-c1cc(C#CCN2CCOC[C@H]2C)ncc1C(=O)Nc1nnc(C#CC2CC2)s1` [Compound 189]: the IC50 is below 0.25 nM.
Molecule `COc1cnc(Cl)cc1-c1cc(CS(C)(=O)=O)ccc1C(=O)Nc1nnc(C#CC2CC2)s1` [Compound 310] came in with an IC50 of 4.4 nM.
As for `COc1cnc(C(F)F)cc1-c1cc(N(C)C(C)=O)ccc1C(=O)Nc1nnc(C#CC2CC2)s1` [Compound 276], the figure is below 0.25 nM; as for `COc1cnc(Cl)cc1-c1cnccc1C(=O)Nc1nnc(C2C[C@H]2c2ccc(C#N)cc2OC)s1` (stereo partly shown) [Compound 304], 13 nM.
`COc1cnc(C(F)F)cc1-c1cc(-c2nnc(C)o2)ccc1C(=O)Nc1nnc(C#CC2CC2)s1` [Compound 111, N-(5-(cyclopropylethynyl)-1,3,4-thiadiazol-2-yl)-2-(2-(difluoromethyl)-5-methoxypyridin-4-yl)-4-(5-methyl-1,3,4-oxadiazol-2-yl)benzamide] came in with an IC50 of 0.78 nM.
Molecule `COc1cnc(C(F)F)cc1-c1cc(-c2cnn(C3COC3)c2)ccc1C(=O)Nc1nnc(C#CC2CC2)s1` [Compound 372] came in with an IC50 of 0.39 nM.
`COc1cnc(C(F)F)cc1-c1cc(C2C[C@@H]2C(=O)N(C)C)ncc1C(=O)Nc1nnc(C#CC2CC2)s1` (stereo partly shown) [Compound 361] displayed a concentration for half-maximal inhibition (IC50) of 1.9 nM.
`O=C(Nc1ncc(C#CC2CC2)s1)c1cc(=O)n(Cc2nccs2)cc1-c1cc(C(F)F)ccc1Cl` [Compound 208] registered an IC50 of 14 nM.
The molecule `COc1cnc(C(F)F)cc1-c1cc(N2CCCC(C)(C)C2=O)ncc1C(=O)Nc1nnc(C#CC2CC2)s1` [Compound 442] had an IC50 below 0.25 nM.
The molecule `COc1ccc(C(F)(F)F)cc1-c1cc(Cl)ncc1C(=O)Nc1nnc(C#CC2CC2)s1` [Compound 41] came in with an IC50 below 0.25 nM.
The molecule `COc1cnc(Cl)cc1-c1cn2c(C#N)cnc2cc1C(=O)Nc1nnc(C#CC2CC2)s1` [Compound 341] yielded a half-maximal inhibitory concentration (IC50) of 3.2 nM.
For `Cc1ccc(Cl)cc1-c1cnccc1C(=O)Nc1nnc(C#CC2CC2)s1` [Compound 43], the half-maximal inhibitory concentration (IC50) is below 0.25 nM.
As for `COc1cnc(C(F)F)cc1-c1cc(N2CC(C)(C)N(C)CC2=O)ncc1C(=O)Nc1nnc(C#CC2CC2)s1` [Compound 471], the figure is 2.1 nM; as for `COc1ccc(C(F)(F)F)cc1-c1cc(C#CC(C)O)ncc1C(=O)Nc1nnc(C#CC2CC2)s1` (stereo not shown) [Compound 248], below 0.25 nM.
The molecule `COc1cnc(C(F)F)cc1-c1cc(C#CC2(O)CCS(=O)(=O)CC2)ccc1C(=O)Nc1nnc(C#CC2CC2)s1` [Compound 264] registered an IC50 below 0.25 nM.
For `COc1ccc(C(F)F)cc1-c1cn2ncnc2cc1C(=O)Nc1nnc(C#CC2CC2)s1` [Compound 328], the IC50 worked out at 3.1 nM.
The figure for `COc1cnc(C(F)F)cc1-c1cc(N2CCOCC2=O)ncc1C(=O)Nc1nnc(C#Cc2ccc(Cl)cc2)s1` [Compound 176] is 23 nM.
Molecule `COc1cnc(C(F)F)cc1-c1cc(N2CCN(C)CC2=O)ncc1C(=O)Nc1nnc(C#CC2CC2)s1` [Compound 194] gave an IC50 of 0.61 nM.
In the case of `COc1cnc(C(F)F)cc1-c1cc(-c2nnc(N(C)C)o2)ccc1C(=O)Nc1nnc(C#CC2CC2)s1` [Compound 408], 1.4 nM corresponded to half-maximal inhibition (IC50).
In turn, `COc1cnc(C(F)F)cc1-c1cc(CC(=O)N2CC(F)(F)C2)ccc1C(=O)Nc1nnc(C#CC2CC2)s1` [Compound 195] displayed an IC50 below 0.25 nM.
As for `O=C(Nc1nnc(C#CC2CC23CC3)s1)c1cc2ncnn2cc1-c1cc(Cl)ncc1OC(F)F` (stereo not shown) [Compound 47], the figure is 0.62 nM.
As for `COc1cnc(C(F)F)cc1-c1cc(N2CC3CC(C3)C2=O)ncc1C(=O)Nc1nnc(C#CC2CC2)s1` [Compound 381], the figure is below 0.25 nM; as for `COc1cnc(C(F)F)cc1-c1cc(-n2cccc(C)c2=O)ncc1C(=O)Nc1nnc(C#CC2CC2)s1` [Compound 437], below 0.25 nM; as for `COc1cnc(Cl)cc1-c1cnccc1C(=O)Nc1nnc(C2CC2c2ccc(OC(F)F)cc2)s1` (stereo not shown) [Compound 62], 0.36 nM.
Consider `COc1cnc(C(F)F)cc1-c1cc(OC[C@@H]2CCC(=O)N2C)ncc1C(=O)Nc1nnc(C#CC2CC2)s1` [Compound 147], for which the IC50 was determined as 0.31 nM.
Consider `COc1cnc(C(F)F)cc1-c1cc(C#CC(C)(C)CO)ccc1C(=O)Nc1nnc(C#CC2CC2)s1` [Compound 240], for which 0.73 nM corresponded to half-maximal inhibition (IC50).
The molecule `COc1cnc(C(F)F)cc1-c1cc(-c2nnc(C)s2)ccc1C(=O)Nc1nnc(C#CC2CC2)s1` [Compound 138] had an IC50 below 0.25 nM.
